The record followed here is patent US20240368174A1, “Antiviral Heterocyclic Compounds” (Enanta Pharmaceuticals, Inc., priority 2023, published 2024).

As usually defined, the EC50 is the concentration at which the effect is half-maximal.

Assay [1] has as its system HMPV clinical isolate A2 strain TN 94-49. Description: HMPV antiviral assay, Method 2 (LLC-MK2 cells with CP-100-356, ATP-Lite). Format: cell-based. The following applies: human metapneumovirus. The method, boiled down: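 EC50 comes from a four-parameter fit of percent cell viability (ATP-Lite, normalized to virus-only and cell-only wells) after 7 days at 37 °C. Infection used HMPV A2 TN 94-49 at MOI 0.16 in LLC-MK2 cells, with 2 μM P-gp inhibitor CP-100-356 and 2 μg/mL TPCK-trypsin final; dose range 200 nM top, 2.5-fold, 10 points, duplicate.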

The test system is the same in assay [2]. The assay can be described thus: HMPV antiviral assay, Method 1 (LLC-MK2 cells, ATP-Lite). The format is cell-based. Conditions: human metapneumovirus, hMPV A2 TN/94-49, LLC-MK2 cells. The method in brief:
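EC50 derived by four-parameter logistic fit of percent cell health, measured as ATP-Lite luminescence after 7 days at 37° C, 5% CO2. Compounds tested as 10-point 2.5-fold dilutions starting at 2 μM against TN 94-49 virus (MOI 0.005) in LLC-MK2 cells seeded at 5,000/well, infection medium containing 2 μg/mL TPCK-trypsin, serum-free.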

Assay [3] has as its system genotype A, “Long” strain RSV. The assay can be described thus: RSV-A assay (CPE, ATPlite readout in Hep-2 cells). Format: cell-based, Human respiratory syncytial virus. The following applies: human respiratory syncytial virus, activity class. The method, boiled down:
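Hep-2 cells (8,000/well) infected with RSV Long strain at MOI 0.1 in the presence of 2-fold compound dilutions in duplicate. After 5 days, cell viability measured by ATPlite luminescence, normalized between virus-only and uninfected cell controls; EC50 reported.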
A general note: ATP-based viability assays read luminescence as a measure of living cells.

Where [4] appears, read: hMPV A2 TN/94-49, LLC-MK2 cells with CP-100-356, Method 2.
Where [5] appears, read: 168 h, hMPV A2 TN/94-49, LLC-MK2 cells with 4 μM CP-100-356, 7 days, ATP-Lite.

In the case of `COc1cc(C(=O)NC[C@](O)(c2cc3c(c(-c4cc(C(F)(F)F)c(F)cc4F)n2)OC[C@]3(C)C(N)=O)C2CC2)cc2cn(C3CC3)nc12` [Example 394], the half-maximal effective concentration (EC50) in assay [1] (setting [4]) was under 0.2 µM; in assay [2], under 0.5 µM; in assay [3], under 0.2 µM.

In the case of `COc1cc(C(=O)NC[C@](O)(c2cc3c(c(-c4ccc5c(c4C)OC(F)(F)O5)n2)OC[C@]3(C)C(N)=O)C2CC2)cc2cn(C3CC3)nc12` [Example 392], the half-maximal effective concentration (EC50) in assay [2] was under 0.5 µM; in assay [3], under 0.2 µM.

In the case of `Cc1nc2c(OC3CC3)cc(C(=O)NC[C@](O)(c3cc4c(c(-c5cc(Cl)c(F)cc5F)n3)OC[C@]4(C)C(N)=O)C3CC3)cc2s1` [Example 76], the EC50 in assay [2] was under 0.5 µM; in assay [3], under 0.2 µM.

Consider `C=C(CNC(=O)c1cc(OC)c2nn(C3CC3)cc2c1)c1cc2c(c(-c3cc(Cl)c(F)cc3F)n1)OC[C@]2(C)C(N)=O` [Example 214], for which the EC50 in assay [2] was over 0.5 µM; in assay [3] it was under 0.2 µM.

Turning to `C[C@]1(C(N)=O)COc2c1cc([C@@](O)(CNC(=O)c1cc(O)c3nn(C4CC4)cc3c1)C1CC1)nc2-c1cc(F)c(F)cc1F` [Example 360], the figures for the EC50 in assay [1] (setting [4]), in assay [2] and in assay [3] were under 0.2 µM, over 0.5 µM and under 0.2 µM, respectively.

On to `[2H]C([2H])([2H])c1nc2ccc(C(=O)NC[C@](O)(c3cc4c(c(-c5cc(F)c(F)cc5F)n3)OC[C@]4(C)C(N)=O)C3CC3)cc2o1` [Example 92], for which the EC50 was under 0.5 µM in assay [2] and under 0.2 µM in assay [3].

For `Cc1nc2ccc(C(=O)NC[C@](O)(c3cc4c(c(-c5cc(Cl)c(F)cc5F)n3)OC[C@]4(C)C(N)=O)C3CC3)cc2s1` [Example 74], the EC50 in assay [2] is under 0.5 µM; in assay [3], under 0.2 µM.

On to `[2H]C([2H])([2H])c1nc2ccc(C(=O)NC[C@](O)(c3cc4c(c(-c5cc(Cl)c(F)cc5F)n3)OC[C@]4(C)C(N)=O)C3CC3)cc2o1` [Example 91], for which the half-maximal effective concentration (EC50) in assay [2] was under 0.5 µM; in assay [3], under 0.2 µM.

On to `Cc1nc2ccc(C(=O)NC[C@](O)(c3cc4c(c(-c5cc(Cl)c(F)cc5F)n3)OC[C@]4(C)C(N)=O)C3CC3)cc2o1` [Example 75], for which the EC50 in assay [2] was under 0.5 µM; in assay [3], under 0.2 µM.

`COc1cc(C(=O)NC[C@](O)(c2cc3c(c(-c4cc(Cl)c(F)cc4F)n2)OC[C@]3(C)C(N)=O)[C@@H]2CC2(F)F)cc2cn(C3CC3)nc12` [Example 151]: the results for the concentration giving a half-maximal response (EC50) in assay [2] and in assay [3] were under 0.5 µM and under 0.2 µM, respectively.

`[2H]c1nc2c(OC(F)F)cc(C(=O)NC[C@](O)(c3cc4c(c(-c5cc(Cl)c(F)cc5F)n3)OC[C@]4(C)C(N)=O)C3CC3)cc2cc1C([2H])([2H])[2H]` [Example 218]: the 50% effective concentration (EC50) was under 0.2 µM in assay [1] (setting [4]), under 0.5 µM in assay [2] and under 0.2 µM in assay [3].

With `C[C@]1(C(N)=O)COc2c1cc([C@@](O)(CNC(=O)c1cc(OC3CC3)c3nn(C4CC4)cc3c1)C1CC(F)(F)C1)nc2-c1cc(F)c(F)cc1F` [Example 32], the EC50 in assay [2] is under 0.5 µM; in assay [3] it was under 0.2 µM.

As for `COc1cc(C(=O)NC[C@](O)(c2cc3c(c(-c4cc(C(F)F)c(F)cc4F)n2)OC[C@]3(C)C(N)=O)C2CC2)cc2cn(C3CC3)nc12` [Example 393], the EC50 was under 0.2 µM in assay [1] (setting [4]), under 0.5 µM in assay [2] and under 0.2 µM in assay [3].

Take `C[C@]1(C(N)=O)COc2c1cc([C@@](O)(CNC(=O)c1cc(OC3CC3)c3nn(C(F)F)cc3c1)C1CC1)nc2-c1ccc2c(c1Cl)OC(F)(F)O2` [Example 129]: the EC50 in assay [1] (setting [4]) is under 0.2 µM; in assay [2], under 0.5 µM; in assay [3], under 0.2 µM.

`COc1cc(C(=O)NC[C@](O)(c2cc3c(c(-c4cc(Cl)c(F)cc4F)n2)OC[C@]3(C)C(N)=O)C2(CO)CC2)cc2cn(C3CC3)nc12` [Example 245]: the EC50 in assay [2] was over 0.5 µM; in assay [3], under 0.2 µM.

In the case of `COc1cccc([C@](O)(CNC(=O)c2cc(OC)c3nn(C(F)F)cc3c2)c2cc3c(c(-c4cc(Cl)c(F)cc4F)n2)OC[C@]3(C)C(N)=O)c1` [Example 161], the results for the EC50 in assay [2] and in assay [3] were under 0.5 µM and under 0.2 µM, respectively.

In the case of `[2H]C([2H])([2H])C1=NC2C(OC)=CC(C(=O)NC[C@](O)(c3cc4c(c(-c5ccc6c(c5Cl)OC(F)(F)O6)n3)OC[C@]4(C)C(N)=O)C3CC3)=CC2S1` (some centres unmarked) [Example 127], the half-maximal effective concentration (EC50) in assay [2] is under 0.5 µM; in assay [3] it was under 0.2 µM.

With `C[C@]1(C(N)=O)COc2c1cc([C@@](O)(CNC(=O)c1ccc3nc(N)sc3c1)C1CC1)nc2-c1cc(F)c(F)cc1F` [Example 73], the concentration giving a half-maximal response (EC50) in assay [2] was over 0.5 µM; in assay [3] it was under 0.2 µM.

In the case of `COc1cc(C(=O)NC[C@](O)(c2cc3c(c(-c4ccc(F)c(Cl)c4C)n2)OC[C@]3(C)C(N)=O)C2CC2)cc2cn(C3CC3)nc12` [Example 391], the EC50 in assay [2] was under 0.5 µM; in assay [3], under 0.2 µM.

Regarding `COc1cc(C(=O)NC[C@](O)(c2cc3c(c(-c4ccc5c(c4Cl)OC(F)(F)O5)n2)OC[C@]3(C)C(N)=O)C2CC2)cc2cn(C3(F)CC3)nc12` [Example 128], the concentration for a half-maximal effect (EC50) is under 0.5 µM in assay [2] and under 0.2 µM in assay [3].

In the case of `COc1cc(C(=O)NC[C@](O)(c2cc3c(c(-c4cc(Cl)c(F)cc4F)n2)OC[C@]3(C)C(N)=O)[C@H]2CC2(F)F)cc2cn(C3CC3)nc12` [Example 150], the EC50 in assay [2] is under 0.5 µM; in assay [3], under 0.2 µM.

With `COc1cc(C(=O)NC[C@@](O)(c2ccc(F)cc2)c2cc3c(c(-c4ccc5c(c4Cl)OC(F)(F)O5)n2)OC[C@]3(C)C(N)=O)cc2cn(C3CC3)nc12` [Example 25], the values for the EC50 in assay [2] and in assay [3] were under 0.5 µM and under 0.2 µM, respectively.

For the compound `COc1cc(C(=O)NC[C@](O)(c2cc3c(c(-c4ccnc(C(F)(F)F)c4Cl)n2)OC[C@]3(C)C(N)=O)C2CC2)cc2cn(C(F)F)nc12` [Example 758], the EC50 in assay [1] (setting [5]) and in assay [3] was under 0.2 µM in each case.

Regarding `COc1cc(C(=O)NC[C@](O)(c2cc3c(c(-c4ccnc(C(F)F)c4Cl)n2)OC[C@]3(C)C(N)=O)C(F)(F)F)cc2cn(C3(F)CC3)nc12` [Example 548], the EC50 in assay [1] (setting [4]) and in assay [3] was under 0.2 µM throughout.

Consider `COc1cc(C(=O)NC[C@](O)(c2cc3c(c(-c4ccc(F)c(Cl)c4)n2)OC[C@]3(C)C(N)=O)C2CC2)cc2oc(C3CC3)nc12` [Example 111], for which the concentration giving a half-maximal response (EC50) is over 0.2 µM in assay [1] (setting [4]) and under 0.2 µM in assay [3].

Turning to `COc1cc(C(=O)NC[C@](O)(c2cc3c(c(-n4ccc5c(F)cccc54)n2)OC[C@]3(C)C(N)=O)C2CC2)cc2oc(C3CC3)nc12` [Example 778], the EC50 in assay [1] (setting [5]) and in assay [3] was under 0.2 µM in each case.

With `COc1cc(C(=O)NC[C@](O)(c2cc3c(c(-c4ccnc(C)c4Cl)n2)OC[C@]3(C)C(N)=O)C2(F)CC2)cc2cn(C(F)F)nc12` [Example 527], the half-maximal effective concentration (EC50) was over 0.2 µM in assay [1] (setting [4]) and under 0.2 µM in assay [3].

`COc1cc(C(=O)NCC(O)(c2cccc(F)c2)c2cc3c(c(-c4cc(C(F)(F)F)ncc4Cl)n2)OC[C@]3(C)C(N)=O)cc2cn(C3CC3)nc12` (some centres unmarked) [Example 379]: the EC50 in assay [1] (setting [4]) was over 0.2 µM; in assay [3], under 0.2 µM.

Turning to `COc1cc(C(=O)NC[C@](O)(c2cc3c(c(-c4cc(C(F)(F)F)ncc4F)n2)OC[C@]3(C)C(N)=O)C2CC2)cc2oc(C3CC3)nc12` [Example 349], the EC50 in assay [1] (setting [4]) and in assay [3] was under 0.2 µM each time.

For `COc1nccc(-c2nc([C@@](O)(CNC(=O)c3cc(OC)c4nn(C5(F)CC5)cc4c3)C(F)(F)F)cc3c2OC[C@]3(C)C(N)=O)c1Cl` [Example 543], the concentration giving a half-maximal response (EC50) in assay [1] (setting [4]) and in assay [3] was under 0.2 µM in each case.
